Reference: patent US20150175655A1 (priority 2012, published 2015)

Columns and labels:
Format in all cases: cell-based
[1] = system: genotype 3a stable HCV replicon (S52 strain) in Huh-7-derived cells; assay: Stable subgenomic HCV replicon EC50, genotype 3a (Renilla luciferase); conditions: Hepatitis C virus, 72 h, read-out: EC50 3A RLUC
Experimental: (§1) Antiviral potency (EC50) was determined in both stable subgenomic HCV replicon cell lines and transient-transfected HCV replicon cells. The term half maximal effective concentration (EC50) refers to the concentration of a drug which induces a response halfway between the baseline and maximum after the exposure time specified below.
(§2) Stable subgenomic HCV replicons for genotype 1a, 1 b, 2a, 3a, and 4a were established in Huh-7-derived cells as described by Lohmann et al (Lohmann V, Korner F, Koch J, et al Replication of subgenomic hepatitis C virus RNAs in a hepatoma cell line. Science 1999; 285:119-3). Each stable cell line contains a bicistronic HCV replicon that encodes a humanized Renilla luciferase (hRLuc) reporter gene fused to a selectable neomycin-resistance gene, followed by an EMCV IRES and the NS3-NS5B coding region of HCV. […] Luciferase activity was measured as a marker for intracellular HCV replication levels.
(§3) The genotype 1a stable replicon was derived from the H77 HCV strain and contained adaptive mutations P1496L and S2204I. The genotype 1 b stable replicon was derived from the Cont HCV strain and contained adaptive mutations E1202G, T1280I, and K1846T. […] The genotype 3a stable replicon was derived from the S52 HCV strain and contained adaptive mutations P1121 L, A1198T and S2210I (equivalent to S2204I in genotype 1). The genotype 4a stable replicon was derived from the ED43 HCV strain and contained adaptive mutations Q1691R and S2204I. All replicon cell lines were propagated in Huh-7-derived cells and maintained in Dulbecco's modified Eagle's Medium (DMEM) supplemented with 10% fetal bovine serum (FBS) and 0.5 mg/mL G418.
(§4) To perform EC50 assays, cells from each HCV replicon were dispensed into 384-well plates. Compounds were dissolved in DMSO at a concentration of 10 mM and diluted in DMSO using an automated pipetting instrument. Three-fold serially diluted compounds were directly added to the cells using an automated instrument. […] Seventy-two hours later, cells were lysed and Renilla luciferase activity were quantified as recommended by the manufacturer (Promega-Madison, Wis.). Non-linear regression was performed to calculate EC50 values.

[2] = system: genotype 1a transient HCV replicon, NS3/4a protease inhibitor resistant variant R155K, in Huh-7-derived cells; assay: Transient-transfected HCV replicon EC50, genotype 1a R155K; conditions: Hepatitis C virus, 72 h, read-out: EC50 1A R155K
[3] = system: genotype 1b stable HCV replicon in Huh-7-derived cells; assay: Stable subgenomic HCV replicon EC50, genotype 1b (Renilla luciferase); conditions: Hepatitis C virus, stable replicon genotype 1b, 72 h, read-out: EC50 1B RLUC
Experimental: as §1, §2, §3, §4

[4] = system: genotype 2a stable HCV replicon (JFH-1 strain) in Huh-7-derived cells; assay: Stable subgenomic HCV replicon EC50, genotype 2a (Renilla luciferase); conditions: Hepatitis C virus, stable replicon genotype 2a, 72 h, read-out: EC50 2A RLUC
Experimental: as §1, §2, §3, §4

[5] = system: genotype 3a transient HCV replicon (S52 strain) in Huh-7-derived cells; assay: Transient-transfected HCV replicon EC50, genotype 3a wild type; conditions: Hepatitis C virus; transient-transfected replicon genotype 3a wild type, 72 h; read-out: EC50 3A WT

Row | SMILES | EC50 [1] | EC50 [2] | EC50 [3] | EC50 [4] | EC50 [5]
1 | CC[C@@H]1[C@@H]2CN(C(=O)[C@H](C(C)(C)C)NC(=O)O[C@@H]3C[C@H]3CC/C=C/C(F)(F)C3Nc4ccc(C#N)cc4N=C3O2)[C@@H]1C(=O)N[C@]1(C(=O)NS(=O)(=O)C2(C)CC2)C[C@H]1C(F)F (stereo partly drawn) [Example 78, (1aR,5S,8S,9S,10R,19E,22aR)-5-tert-butyl-14-cyano-N-[(1R,2R)-2-(difluoromethyl)-1-{[(1-methylcyclopropyl)sulfonyl]carbamoyl}cyclopropyl]-9-ethyl-18,18-difluoro-3,6-dioxo-1,1a,3,4,5,6,9,10,17,17a,18,21,22,22a-tetradecahydro-8H-7,10-methanocyclopropa[18,19][1,10,3,6]dioxadiazacyclononadecino[11,12-b]quinoxaline-8-carboxamide] | 1120 nM | 225 nM | 394 nM | 195 nM | 194 nM
2 | C[C@@H]1[C@@H]2CN(C(=O)[C@H](C(C)(C)C)NC(=O)O[C@@H]3C[C@H]3CCCCC(F)(F)c3nc4ccc(Cl)cc4nc3O2)[C@@H]1C(=O)N[C@]1(C(=O)NS(=O)(=O)C2(C)CC2)C[C@H]1C(F)F [Example 88, (1aR,5S,8S,9S,10R,22aR)-5-tert-butyl-14-chloro-N-[(1R,2R)-2-(difluoromethyl)-1-{[(1-methylcyclopropyl)sulfonyl]carbamoyl}cyclopropyl]-18,18-difluoro-9-methyl-3,6-dioxo-1,1a,3,4,5,6,9,10,18,19,20,21,22,22a-tetradecahydro-8H-7,10-methanocyclopropa[18,19][1,10,3,6]dioxadiazacyclononadecino[11,12-b]quinoxaline-8-carboxamide] | 105 nM | 14 nM | 4.6 nM | 2.7 nM | 35 nM
3 | CC[C@@H]1[C@@H]2CN(C(=O)[C@H](C(C)(C)C)NC(=O)O[C@]3(C)CCC[C@H]3CCCCCc3nc4ccc(OC)cc4nc3O2)[C@@H]1C(=O)N[C@]1(C(=O)NS(=O)(=O)C2(C)CC2)C[C@H]1CC(F)F [Example 41, (3aR,7S,10S,11S,12R,24aR)-7-tert-butyl-N-[(1R,2S)-2-(2,2-difluoroethyl)-1-{[(1-methylcyclopropyl)sulfonyl]carbamoyl}cyclopropyl]-11-ethyl-16-methoxy-3a-methyl-5,8-dioxo-1,2,3,3a,5,6,7,8,11,12,20,21,22,23,24,24a-hexadecahydro-10H-9,12-methanocyclopenta[18,19][1,10,3,6]dioxadiazacyclononadecino[11,12-b]quinoxaline-10-carboxamide] | – | – | 142 nM | 106 nM | 539 nM
4 | COc1ccc2nc3c(nc2c1)O[C@H]1CN(C(=O)[C@H](C(C)(C)C)NC(=O)O[C@@H]2C[C@H]2CCCCC3F)[C@H](C(=O)N[C@]2(C(=O)NS(=O)(=O)C3(C)CC3)C[C@H]2C(F)F)[C@@H]1C (stereo partly drawn) [Example 47, (1aR,5S,8S,9S,10R,22aR)-5-tert-butyl-N-[(1R,2R)-2-(difluoromethyl)-1-{[(1-methylcyclopropyl)sulfonyl]carbamoyl}cyclopropyl]-18-fluoro-14-methoxy-9-methyl-3,6-dioxo-1,1a,3,4,5,6,9,10,18,19,20,21,22,22a-tetradecahydro-8H-7,10-methanocyclopropa[18,19][1,10,3,6]dioxadiazacyclononadecino[11,12-b]quinoxaline-8-carboxamide] | 58 nM | 6.1 nM | 3.6 nM | 12 nM | 17 nM
